Source: patent US9481670B2, “Triazine compounds” (Sphaera Pharma PTE. Ltd., priority 2011, dated 2016)

Biological target: T1, PI3K alpha (Homo sapiens, UniProt P42336)
T1 construct: purchased Millipore Upstate
Assay: P110 Alpha TR-FRET Assay (PI3K alpha kinase assay, HTRF Transcreener ADP Assay)
Format: biochemical
Details: PI3K (WT)
Summary of the method: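 HTRF Transcreener ADP read-out of ADP formed by PI3K (50 ng enzyme) in 50 mM HEPES pH 7.5, 5 mM MgCl2, 1 mM DTT, 30 μM Na3VO4. Compound preincubated with enzyme 20 min; reaction started with 10 μM ATP and 5 μM PIP2, run 20 min, then ADP-d2/anti-ADP cryptate detection for 1 h.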

T1 sequence (P42336 whole entry): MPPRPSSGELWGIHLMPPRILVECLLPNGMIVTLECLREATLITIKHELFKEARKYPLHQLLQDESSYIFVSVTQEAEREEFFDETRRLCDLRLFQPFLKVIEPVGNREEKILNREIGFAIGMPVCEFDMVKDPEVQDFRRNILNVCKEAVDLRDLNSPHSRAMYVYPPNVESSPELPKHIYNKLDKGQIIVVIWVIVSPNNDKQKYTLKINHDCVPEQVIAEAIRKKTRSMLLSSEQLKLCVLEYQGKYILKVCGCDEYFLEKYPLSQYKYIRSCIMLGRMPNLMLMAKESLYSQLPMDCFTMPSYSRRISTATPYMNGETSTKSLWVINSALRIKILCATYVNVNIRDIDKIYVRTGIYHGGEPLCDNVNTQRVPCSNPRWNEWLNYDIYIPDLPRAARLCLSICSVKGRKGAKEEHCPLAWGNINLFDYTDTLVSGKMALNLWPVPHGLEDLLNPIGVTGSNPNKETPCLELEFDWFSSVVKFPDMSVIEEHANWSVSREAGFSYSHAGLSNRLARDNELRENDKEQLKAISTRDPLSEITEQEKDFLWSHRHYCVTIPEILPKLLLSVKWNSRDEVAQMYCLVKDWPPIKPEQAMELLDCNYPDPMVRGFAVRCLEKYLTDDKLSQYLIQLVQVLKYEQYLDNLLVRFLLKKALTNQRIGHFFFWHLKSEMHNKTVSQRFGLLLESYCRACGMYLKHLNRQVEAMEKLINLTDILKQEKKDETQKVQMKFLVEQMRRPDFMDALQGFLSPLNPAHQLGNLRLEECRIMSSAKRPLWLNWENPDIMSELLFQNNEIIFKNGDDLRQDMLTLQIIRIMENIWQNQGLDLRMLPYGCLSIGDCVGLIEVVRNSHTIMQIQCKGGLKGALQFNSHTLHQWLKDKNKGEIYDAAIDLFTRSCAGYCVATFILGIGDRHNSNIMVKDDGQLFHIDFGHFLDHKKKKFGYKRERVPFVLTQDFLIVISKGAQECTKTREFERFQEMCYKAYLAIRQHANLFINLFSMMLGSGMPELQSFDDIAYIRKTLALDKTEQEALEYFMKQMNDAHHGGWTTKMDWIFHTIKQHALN
T1 sequence (P27986 whole entry partner): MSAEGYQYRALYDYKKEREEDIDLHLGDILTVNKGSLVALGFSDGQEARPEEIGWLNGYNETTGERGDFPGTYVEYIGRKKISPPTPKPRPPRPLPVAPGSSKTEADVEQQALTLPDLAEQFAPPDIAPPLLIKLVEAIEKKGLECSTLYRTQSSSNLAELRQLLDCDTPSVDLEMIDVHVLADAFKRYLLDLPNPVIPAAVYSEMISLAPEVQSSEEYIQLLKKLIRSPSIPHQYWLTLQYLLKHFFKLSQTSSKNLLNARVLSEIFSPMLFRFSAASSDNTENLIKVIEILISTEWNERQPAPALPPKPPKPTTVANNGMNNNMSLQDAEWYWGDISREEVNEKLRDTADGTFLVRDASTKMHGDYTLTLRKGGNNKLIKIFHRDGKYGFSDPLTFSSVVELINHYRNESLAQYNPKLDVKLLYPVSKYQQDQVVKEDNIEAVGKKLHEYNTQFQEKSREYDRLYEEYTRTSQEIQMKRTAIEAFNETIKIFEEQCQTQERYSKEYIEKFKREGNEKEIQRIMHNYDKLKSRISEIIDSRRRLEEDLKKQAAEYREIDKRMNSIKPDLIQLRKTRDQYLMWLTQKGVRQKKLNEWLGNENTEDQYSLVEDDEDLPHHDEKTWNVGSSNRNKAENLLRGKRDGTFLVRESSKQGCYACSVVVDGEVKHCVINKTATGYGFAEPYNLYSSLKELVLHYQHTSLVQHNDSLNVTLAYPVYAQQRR

| Structure (SMILES) | IC50 [µM] |
| --- | --- |
| CN(C)C(=O)CNc1nc(-c2ccc(N)cc2)nc(N2CCOCC2)n1 [Compound 1185, 2-((4-(4-aminophenyl)-6-morpholino-1,3,5-triazin-2-yl)amino)-N,N-dimethylacetamide] | > 5 |
| CN(C)C(=O)c1ccc(Oc2nc(-c3cccc4[nH]ncc34)nc(N3CCC(=O)CC3)n2)cc1 [Compound 1044, 4-8-{[4-5-(1H-indazol-4-yl)-6-3-(4-30-oxopiperidin-1-yl)-1,3,5-triazin-2-yl]oxy}-N,N-dimethylbenzamide] | > 5 |
| CN(C)C(=O)CNc1nc(-c2cccc(C#N)c2)nc(N2CCOCC2)n1 [Compound 1141, 2-((4-(3-cyanophenyl)-6-morpholino-1,3,5-triazin-2-yl)amino)-N,N-dimethylacetamide] | > 5 |
| CN(C)C(=O)c1ccc(Oc2nc(-c3cccc4[nH]ncc34)nc(N3CCCC(C(N)=O)C3)n2)cc1 (centres unmarked) [Compound 1039, 1-27-{4-1-[4-10-(dimethylcarbamoyl)phenoxy]-6-5-(1H-indazol-4-yl)-1,3,5-triazin-2-yl}piperidine-3-carboxamide] | > 5 |
| CN(C)C(=O)C(=O)N[C@H]1CC[C@H](Oc2nc(-c3cccc4[nH]ncc34)nc(N3CCOCC3)n2)CC1 [Compound 1125, N,N-dimethyl-N′-[(1r,4r)-4-9-{[4-1-(1H-indazol-4-yl)-6-5-(morpholin-4-yl)-1,3,5-triazin-2-yl]oxy}cyclohexyl]ethanediamide] | < 5 |
| CS(=O)(=O)N1CCN(C(=O)CNc2nc(-c3ccc(N)cc3)nc(N3CCOCC3)n2)CC1 [Compound 1120, 2-((4-(4-aminophenyl)-6-morpholino-1,3,5-triazin-2-yl)amino)-1-(4-(methylsulfonyl)piperazin-1-yl)ethanone] | > 5 |
| Cc1cc(N)ncc1-c1nc(Oc2ccc(C(=O)N(C)C)cc2)nc(N2CCOCC2)n1 [Compound 1022, 4-14-{[4-1-(6-17-amino-4-15-methylpyridin-3-yl)-6-5-(morpholin-4-yl)-1,3,5-triazin-2-yl]ioxy}-N,N-dimethylbenzamide] | > 5 |
| O=C(O)CNc1nc(-c2cccc3[nH]ncc23)nc(N2CCOCC2)n1 [Compound 1236, 2-((4-(1H-indazol-4-yl)-6-morpholino-1,3,5-triazin-2-yl)amino)acetic acid] | < 5 |
| CN(C)C(=O)[C@H]1CC[C@@H](Nc2nc(-c3cccc4[nH]ncc34)nc(N3CCOCC3)n2)CC1 [Compound 1216, 4-((4-(1H-indazol-4-yl)-6-morpholino-1,3,5-triazin-2-yl)amino)-N,N-dimethylcyclohexanecarboxamide] | < 5 |
| CC(C)(CO)Nc1nc(-c2cccc(O)c2)nc(N2CCOCC2)n1 [Compound 1155, 3-6-{4-3-[(1-hydroxy-2-methylpropan-2-yl)amino]-6-5-(morpholin-4-yl)-1,3,5-triazin-2-yl}phenol] | < 5 |
| CN1CCN(C(=O)c2cccc(Nc3nc(-c4cccc5[nH]ncc45)nc(N4CCOCC4)n3)c2)CC1 [Compound 1172, (3-((4-(1H-indazol-4-yl)-6-morpholino-1,3,5-triazin-2-yl)amino)phenyl)(4-methylpiperazin-1-yl)methanone] | < 5 |
| CS(=O)(=O)Nc1ccc(Oc2nc(-c3cccc4[nH]ncc34)nc(N3CCOCC3)n2)cc1 [Compound 1093, N-(4-14-{[4-1-(1H-indazol-4-yl)-6-5-(morpholin-4-yl)-1,3,5-triazin-2-yl]oxy}phenyl)methanesulfonamide] | < 5 |
| CN(C)C(=O)[C@H]1CC[C@@H](Oc2nc(-c3cccc4[nH]ncc34)nc(N3CCOCC3)n2)CC1 [Compound 1143, (1s,4s)-4-21-{[4-1-(1H-indazol-4-yl)-6-5-(morpholin-4-yl)-1,3,5-triazin-2-yl]oxy}-N,N-dimethylcyclohexane-1-carboxamide] | < 5 |
| Cc1nc(-c2cccc3[nH]ncc23)nc(N2CCOCC2)n1 [Compound 1226, 4-7-[4-3-methyl-6-5-(morpholin-4-yl)-1,3,5-triazin-2-yl]-1H-indazole] | < 5 |
| CC(Nc1nc(-c2cccc(NS(C)(=O)=O)c2)nc(N2CCOCC2)n1)C(=O)O (centres unmarked) [Compound 1138, 2-((4-(3-(methylsulfonamido)phenyl)-6-morpholino-1,3,5-triazin-2-yl)amino)propanoic acid] | > 5 |
| COc1cccc(-c2nc(NCC(=O)N3CCN(S(C)(=O)=O)CC3)nc(N3CCOCC3)n2)c1 [Compound 1079, 2-((4-(3-methoxyphenyl)-6-morpholino-1,3,5-triazin-2-yl)amino)-1-(4-(methylsulfonyl)piperazin-1-yl)ethanone] | > 5 |
| CC(=O)Nc1cccc(-c2nc(N3CCOCC3)nc(N(CC(=O)O)C(C)=O)n2)c1 [Compound 1121, 2-9-{N-[4-1-(3-14-acetamidophenyl)-6-5-(morpholin-4-yl)-1,3,5-triazin-2-yl]acetamido}acetic acid] | > 5 |

Results, then the compound that gave them:

| IC50 [µM] | Structure (SMILES) |
| --- | --- |
| < 5 | Nc1ncc(-c2nc(Nc3nccs3)nc(N3CCOCC3)n2)s1 [Compound 1007, N-(4-(2-aminothiazol-5-yl)-6-morpholino-1,3,5-triazin-2-yl)thiazol-2-amine] |
| < 5 | CN(C)C(=O)C(=O)Nc1ccc(Oc2nc(-c3cccc4[nH]ncc34)nc(N3CCOCC3)n2)cc1 [Compound 1101, N-(4-14-{[4-1-(1H-indazol-4-yl)-6-5-(morpholin-4-yl)-1,3,5-triazin-2-yl]oxy}phenyl)-N′,N′-dimethylethanediamide] |
| < 5 | O=C(O)C1(Nc2nc(-c3cccc(O)c3)nc(N3CCOCC3)n2)CCCC1 [Compound 1153, 1-((4-(3-hydroxyphenyl)-6-morpholino-1,3,5-triazin-2-yl)amino)cyclopentanecarboxylic acid] |
| < 5 | CN(C)C(=O)c1cccc(Oc2nc(-c3ccc(N)nc3)nc(N3CCOCC3)n2)c1 [Compound 1015, 3-20-{[4-1-(6-11-aminopyridin-3-yl)-6-5-(morpholin-4-yl)-1,3,5-triazin-2-yl]oxy}-N,N-dimethylbenzamide] |
| < 5 | CN(C)C(=O)c1cccc(Nc2nc(-c3cnc(N)nc3)nc(N3CCOCC3)n2)c1 [Compound 1040, 3-((4-(2-aminopyrimidin-5-yl)-6-morpholino-1,3,5-triazin-2-yl)amino)-N,N-dimethylbenzamide] |
| < 5 | Cc1c(Nc2nc(-c3cccc4[nH]ncc34)nc(N3CCOCC3)n2)cccc1C(N)=O [Compound 1186, 3-((4-(1H-indazol-4-yl)-6-morpholino-1,3,5-triazin-2-yl)amino)-2-methylbenzamide] |
| < 5 | Nc1ccc(-c2nc(CO)nc(N3CCOCC3)n2)cn1 [Compound 1071, 1-7-[4-3-(6-16-aminopyridin-3-yl)-6-5-(morpholin-4-yl)-1,3,5-triazin-2-yl]methanol] |
| < 5 | CN1CCN(c2nc(-c3cccc4[nH]ncc34)nc(N3CCOCC3)n2)CC1 [Compound 1228, 4-18-[4-3-(4-15-methylpiperazin-1-yl)-6-5-(morpholin-4-yl)-1,3,5-triazin-2-yl]-1H-indazole] |
| < 5 | c1cc(-c2nc(OC3CCNCC3)nc(N3CCOCC3)n2)c2cn[nH]c2c1 [Compound 1151, 4-7-[4-5-(morpholin-4-yl)-6-3-(piperidin-4-yloxy)-1,3,5-triazin-2-yl]-1H-indazole] |
| < 5 | CN(C)C(=O)NC(C)(C)COc1nc(-c2cccc3[nH]ncc23)nc(N2CCOCC2)n1 [Compound 1147, 1-(1-14-{[4-1-(1H-indazol-4-yl)-6-5-(morpholin-4-yl)-1,3,5-triazin-2-yl]oxy}-2-15-methylpropan-2-yl)-3,3-dimethylurea] |
| < 5 | CC(Nc1nc(-c2cccc(O)c2)nc(N2CCOCC2)n1)C(=O)N1CCN(S(C)(=O)=O)CC1 (centres unmarked) [Compound 1076, 2-((4-(3-hydroxyphenyl)-6-morpholino-1,3,5-triazin-2-yl)amino)-1-(4-(methylsulfonyl)piperazin-1-yl)propan-1-one] |
| < 5 | CN(C)C(=O)N1CCC(Oc2nc(-c3cnc(N)nc3)nc(N3CCOCC3)n2)CC1 [Compound 1008, 4-14-{[4-1-(2-17-aminopyrimidin-5-yl)-6-5-(morpholin-4-yl)-1,3,5-triazin-2-yl]oxy}-N,N-dimethylpiperidine-1-carboxamide] |
| < 5 | Cc1ccc(C(=O)N(C)C)cc1Nc1nc(-c2cccc3[nH]ncc23)nc(N2CCOCC2)n1 [Compound 1178, 3-((4-(1H-indazol-4-yl)-6-morpholino-1,3,5-triazin-2-yl)amino)-N,N,4-trimethylbenzamide] |
| < 5 | CC1COCCN1c1nc(Oc2ccc(C(=O)N(C)C)cc2)nc(-c2cccc3[nH]ncc23)n1 (centres unmarked) [Compound 1098, 4-9-{[4-1-(1H-indazol-4-yl)-6-5-(3-28-methylmorpholin-4-yl)-1,3,5-triazin-2-yl]oxy}-N,N-dimethylbenzamide] |
| < 5 | ON=C1CCN(c2nc(-c3cccc4[nH]ncc34)nc(N3CCOCC3)n2)CC1 [Compound 1208, N-{1-8-[4-1-(1H-indazol-4-yl)-6-5-(morpholin-4-yl)-1,3,5-triazin-2-yl]piperidin-4-ylidene}hydroxylamine] |
| < 5 | O=c1[nH]c2ccc(Oc3nc(-c4cccc5[nH]ncc45)nc(N4CCOCC4)n3)cc2[nH]1 [Compound 1086, 5-23-{[4-1-(1H-indazol-4-yl)-6-5-(morpholin-4-yl)-1,3,5-triazin-2-yl]oxy}-2,3-dihydro-1H-1,3-benzodiazol-2-one] |
| < 5 | NC(=O)Cc1cccc(Nc2nc(-c3cccc4[nH]ncc34)nc(N3CCOCC3)n2)c1 [Compound 1195, 2-(3-((4-(1H-indazol-4-yl)-6-morpholino-1,3,5-triazin-2-yl)amino)phenyl)acetamide] |
| < 5 | CN(C)C(=O)[C@@H]1CCC[C@@H](Oc2nc(-c3cccc4[nH]ncc34)nc(N3CCOCC3)n2)C1 [Compound 1133, (1R,3R)-3-14-{[4-1-(1H-indazol-4-yl)-6-5-(morpholin-4-yl)-1,3,5-triazin-2-yl]oxy}-N,N-dimethylcyclohexane-1-carboxamide] |
